The values below come from patent US20230014907A1, “INHIBITORS OF APOL1 AND METHODS OF USING SAME” (Vertex Pharmaceuticals Incorporated, priority 2020, published 2023).

Molecules are shown by their SMILES.

The assay deals with T1, G1 APOL1 (Homo sapiens, UniProt O14791, I384M/S342G).
T1 construct: expressed in transfected cells
T1 sequence (O14791 28-398 S342G/I384M): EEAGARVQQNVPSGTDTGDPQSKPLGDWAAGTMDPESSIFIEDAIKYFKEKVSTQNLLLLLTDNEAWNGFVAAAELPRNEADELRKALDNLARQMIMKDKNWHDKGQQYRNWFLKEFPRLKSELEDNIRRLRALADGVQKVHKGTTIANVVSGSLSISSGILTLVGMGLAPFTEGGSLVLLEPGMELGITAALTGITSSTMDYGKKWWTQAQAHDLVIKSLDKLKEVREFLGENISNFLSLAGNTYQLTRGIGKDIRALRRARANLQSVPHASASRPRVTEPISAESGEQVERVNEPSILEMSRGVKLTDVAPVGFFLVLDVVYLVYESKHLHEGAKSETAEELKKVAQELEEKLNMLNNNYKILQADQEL
The assay can be described thus: Acute APOL1 Thallium Assay with Inducible Stable Clones of HEK 293 Cells. It is filed as cell-based. The note with it: HEK 293 inducible stable clones, G1 APOL1; read-out: Thallium Assay (IC50). Summed up: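 Pore activity was read as the fluorescence increase from Tl+ entering cells loaded with an AM-ester thallium indicator dye. The cells were tetracycline-inducible HEK293 T-Rex expressing G1 APOL1 (clone DC3.25), induced when plated at 26000 per well and incubated at 37° C.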

The IC50 is the concentration needed to halve the response being measured. `O=C(NCCc1c(-c2ccc(F)cc2)[nH]c2c(F)cc(F)cc12)NCC1CC(F)(F)C1` [Compound 289]: the IC50 was above 1000 nM.
The value for `CCC(O)CNC(=O)OCCc1c(-c2ccc(F)cc2)[nH]c2c(F)cc(F)cc12` (centres unmarked) [Compound 472] was 250 to 1000 nM; that for `CC(CCO)NC(=O)CCc1c(-c2ccc(F)cc2)[nH]c2c(F)cc(Cl)cc12` (racemic) [Compound 200] was 250 to 1000 nM; that for `O=C(NCC1(O)CCS(=O)(=O)C1)OCCc1c(-c2ccc(F)cc2)[nH]c2c(F)cc(F)cc12` (centres unmarked) [Compound 498] was above 1000 nM.
On to `O=C(NCCc1c(-c2ccc(F)cc2)[nH]c2c(F)cc(F)cc12)c1cncc(F)c1` [Compound 377], for which the half-maximal inhibitory concentration (IC50) was above 1000 nM.
The value for `Cn1ccnc1C(=O)NCCc1c(-c2ccc(F)cc2)[nH]c2c(F)cc(F)cc12` [Compound 388] was 250 to 1000 nM; that for `O=C(NCCc1c(-c2ccc(F)cc2)[nH]c2c(F)cc(F)cc12)C1CC(O)C1` (centres unmarked) [Compound 348] was above 1000 nM; that for `NC(=O)C1(C(=O)NCCc2c(-c3ccc(F)cc3)[nH]c3c(F)cc(F)cc23)CC1` [Compound 339] was 250 to 1000 nM.
The figure for `O=C(/C=C/c1c(-c2ccc(F)cc2)[nH]c2c(F)ccc(F)c12)N[C@H]1CCNC1=O` [Compound 520, (E)-3-[4,7-difluoro-2-(4-fluorophenyl)-1H-indol-3-yl]-N-[(3S)-2-oxopyrrolidin-3-yl]prop-2-enamide] is above 1000 nM; for `O=C1CNC(=O)N1CCc1c(-c2ccc(F)cc2)[nH]c2c(F)cc(F)cc12` [Compound 258, 3-[2-[5,7-difluoro-2-(4-fluorophenyl)-1H-indol-3-yl]ethyl]imidazolidine-2,4-dione] it is above 1000 nM; for `COc1ccc2[nH]c(-c3ccc(F)cc3)c(CCNC(=O)OC(C)(C)C)c2c1` [Compound 430, tert-butyl N-[2-[2-(4-fluorophenyl)-5-methoxy-1H-indol-3-yl]ethyl]carbamate] it is above 1000 nM.
The value for `CC(CC(N)=O)NC(=O)NCCc1c(-c2ccc(F)cc2)[nH]c2c(F)cc(F)cc12` (racemic) [Compound 271] was 250 to 1000 nM; that for `O=C1CCC[C@@H](C(=O)NCCc2c(-c3ccc(F)cc3)[nH]c3c(F)cc(F)cc23)N1` [Compound 329] was above 1000 nM; that for `CC(C)(C)OC(=O)N[C@H](CO)C(=O)NCCc1c(-c2ccc(F)cc2)[nH]c2c(F)cc(F)cc12` [Compound 305, tert-butyl N-[(1R)-2-[2-[5,7-difluoro-2-(4-fluorophenyl)-1H-indol-3-yl]ethylamino]-1-(hydroxymethyl)-2-oxo-ethyl]carbamate] was above 1000 nM.
Turning to `C[C@@H](O)[C@@H](CO)NC(=O)OCCc1c(-c2ccc(F)cc2)[nH]c2c(F)cc(F)cc12` [Compound 454], the half-inhibitory concentration (IC50) lay in the range of 250 to 1000 nM.
Regarding `O=C(NCCc1c(-c2ccc(F)cc2)[nH]c2c(F)cc(F)cc12)NCC1CCCOC1` (centres unmarked) [Compound 293], the 50% inhibitory concentration (IC50) was above 1000 nM.
The value for `O=C(NCCc1c(-c2ccc(F)cc2)[nH]c2c(F)cc(F)cc12)c1c[nH]nc1C(F)(F)F` [Compound 316] was above 1000 nM; that for `C[C@H](N)C(=O)NCCc1c(-c2ccc(F)cc2)[nH]c2c(F)cc(F)cc12` [Compound 363] was above 1000 nM; that for `O=C(NCc1cccnc1)OCCc1c(-c2ccc(F)cc2)[nH]c2c(F)cc(F)cc12` [Compound 497] was above 1000 nM.
For `O=C(NCCc1c(-c2ccc(F)cc2)[nH]c2c(F)cc(F)cc12)c1nc(C(F)(F)F)cs1` [Compound 368], the IC50 was above 1000 nM.
The value for `NC(=O)C(=O)NCCc1c(-c2ccc(F)cc2)[nH]c2c(F)cc(F)cc12` [Compound 364] was 250 to 1000 nM.
For `O=C1CC(NC(=O)CCCc2c(-c3ccc(F)cc3)[nH]c3c(F)cc(F)cc23)CN1` (centres unmarked) [Compound 253], the IC50 is above 1000 nM.
Turning to `CC(C)(O)CCNC(=O)OCCc1c(-c2ccc(F)cc2)[nH]c2c(F)cc(F)cc12` [Compound 458], the IC50 was in the range of 250 to 1000 nM.
On to `O=C(CCc1c(-c2ccc(F)cc2)[nH]c2c(F)cc(Cl)cc12)N[C@H](CO)C(F)(F)F` [Compound 205], for which the IC50 is above 1000 nM.
In the case of `Cc1cc(F)c2[nH]c(-c3ccc(F)cc3)c(CCC(=O)N[C@H](CO)C(F)(F)F)c2c1` [Compound 224], the half-maximal inhibitory concentration (IC50) was above 1000 nM.
As for `NC(=O)CC(=O)NCCc1c(-c2ccc(F)cc2)[nH]c2c(F)cc(F)cc12` [Compound 358], the IC50 is above 1000 nM.
The value for `NC(=O)C1(NC(=O)OCCc2c(-c3ccc(F)cc3)[nH]c3c(F)cc(F)cc23)CC1` [Compound 473] was 250 to 1000 nM.
`Cc1cc(F)c2[nH]c(-c3ccc(F)cc3)c(CCC(=O)NC(CO)CF)c2c1` (centres unmarked) [Compound 221]: the concentration for half-maximal inhibition (IC50) is above 1000 nM.
The value for `CS(=O)(=O)CC(=O)NCCc1c(-c2ccc(F)cc2)[nH]c2c(F)cc(F)cc12` [Compound 382] was above 1000 nM; that for `O=C(CCc1c(-c2ccc(F)cc2)[nH]c2c(F)cc(Cl)cc12)NC[C@@H](O)CO` [Compound 210] was above 1000 nM.
Turning to `Cn1ccnc1CCC(=O)NCCc1c(-c2ccc(F)cc2)[nH]c2c(F)cc(F)cc12` [Compound 371], the half-maximal inhibitory concentration (IC50) is above 1000 nM.
The value for `CC(=O)NCC(=O)NCCc1c(-c2ccc(F)cc2)[nH]c2c(F)cc(F)cc12` [Compound 344] was above 1000 nM; that for `Cc1ccc(CNC(=O)OCCc2c(-c3ccc(F)cc3)[nH]c3c(F)cc(F)cc23)o1` [Compound 485] was above 1000 nM; that for `C[C@H](CO)NC(=O)CCc1c(-c2ccc(F)cc2)[nH]c2c(F)cc(Cl)cc12` [Compound 208] was below 250 nM.
The value for `C[C@@H]1NC(=O)N(CCc2c(-c3ccc(F)cc3)[nH]c3c(F)cc(F)cc23)C1=O` [Compound 257, (5S)-3-[2-[5,7-difluoro-2-(4-fluorophenyl)-1H-indol-3-yl]ethyl]-5-methyl-imidazolidine-2,4-dione] was above 1000 nM.
As to `O=C(NCCc1c(-c2ccc(F)cc2)[nH]c2c(F)cc(F)cc12)NCC1(CO)CC1` [Compound 276], the IC50 was above 1000 nM.
The value for `N#CCC(=O)NCCc1c(-c2ccc(F)cc2)[nH]c2c(F)cc(F)cc12` [Compound 416] was above 1000 nM.
As for `CN(C)C(=O)CCC(=O)NCCc1c(-c2ccc(F)cc2)[nH]c2c(F)cc(F)cc12` [Compound 374], the IC50 is above 1000 nM.
Take `C[C@H](NC(=O)NCCc1c(-c2ccc(F)cc2)[nH]c2c(F)cc(F)cc12)C(=O)O` [Compound 281]: the concentration for half-maximal inhibition (IC50) is above 1000 nM.
The figure for `CC(C)(C)OC(=O)NC1(CC(=O)NCCc2c(-c3ccc(F)cc3)[nH]c3c(F)cc(F)cc23)CC1` [Compound 312] is above 1000 nM; for `O=C1N[C@H](C(=O)NCCc2c(-c3ccc(F)cc3)[nH]c3c(F)cc(F)cc23)CS1` [Compound 322] it is above 1000 nM.
The figure for `O=C(NC1CC(O)C1)OCCc1c(-c2ccc(F)cc2)[nH]c2c(F)cc(F)cc12` (centres unmarked) [Compound 466] is 250 to 1000 nM; for `CNC(=O)C(=O)NCCc1c(-c2ccc(F)cc2)[nH]c2c(F)cc(F)cc12` [Compound 359] it is above 1000 nM; for `OC1(CC#Cc2c(-c3ccc(F)cc3)[nH]c3c(F)cc(F)cc23)CCC1` [Compound 525, 1-[3-[5,7-difluoro-2-(4-fluorophenyl)-1H-indol-3-yl]prop-2-ynyl]cyclobutanol] it is above 1000 nM.
The figure for `O=C1N[C@@H](C(=O)NCCc2c(-c3ccc(F)cc3)[nH]c3c(F)cc(F)cc23)CO1` [Compound 306, (4R)—N-[2-[5,7-difluoro-2-(4-fluorophenyl)-1H-indol-3-yl]ethyl]-2-oxo-oxazolidine-4-carboxamide] is above 1000 nM; for `O=C(/C=C/c1c(-c2ccc(F)cc2)[nH]c2c(F)cc(F)cc12)N[C@H]1CCNC1=O` [Compound 519, (E)-3-[5,7-difluoro-2-(4-fluorophenyl)-1H-indol-3-yl]-N-[(3S)-2-oxopyrrolidin-3-yl]prop-2-enamide] it is below 250 nM.
`O=C1CCC(C(=O)NCCc2c(-c3ccc(F)cc3)[nH]c3c(F)cc(F)cc23)CN1` (centres unmarked) [Compound 332]: the concentration for half-maximal inhibition (IC50) is above 1000 nM.
Regarding `O=C(NCCc1c(-c2ccc(F)cc2)[nH]c2c(F)cc(F)cc12)N[C@@H]1CC[C@H](O)C1` [Compound 272], the IC50 was above 1000 nM.
Take `O=C(NCCc1c(-c2ccc(F)cc2)[nH]c2c(F)cc(F)cc12)NCc1ccoc1` [Compound 299]: the half-inhibitory concentration (IC50) was above 1000 nM.
For the molecule `O=C(NCCc1c(-c2ccc(F)cc2)[nH]c2c(F)cc(F)cc12)N[C@H]1CCNC1=O` [Compound 277], the 50% inhibitory concentration (IC50) is above 1000 nM.
The figure for `N#CC(CO)NC(=O)CCc1c(-c2ccc(F)cc2)[nH]c2c(F)cc(Cl)cc12` (centres unmarked) [Compound 198] is 250 to 1000 nM; for `NC(=O)[C@H](CO)NC(=O)OCCc1c(-c2ccc(F)cc2)[nH]c2c(F)cc(F)cc12` [Compound 475] it is above 1000 nM; for `O=C(NCCc1c(-c2ccc(F)cc2)[nH]c2c(F)cc(F)cc12)N1CCC[C@H]1CO` [Compound 296] it is above 1000 nM.
Regarding `CC(CC(=O)NCCc1c(-c2ccc(F)cc2)[nH]c2c(F)cc(F)cc12)C(N)=O` (racemic) [Compound 335], the IC50 is above 1000 nM.
As to `CN(C[C@H](O)CO)C(=O)OCCc1c(-c2ccc(F)cc2)[nH]c2c(F)cc(F)cc12` [Compound 482], the half-maximal inhibitory concentration (IC50) is above 1000 nM.
The value for `O=S(=O)(CCO)NCCc1c(-c2ccc(F)cc2)[nH]c2c(F)cc(F)cc12` [Compound 422] was above 1000 nM.
